In brackets after ≈: the same amount, converted by molar mass.
How the values were obtained:
[1] = tested on: S typhimurium S18; experiment: MIC, veterinary bacteria; type: cell-based; conditions: veterinary bacteria (Table 2), read-out: MIC
[2] = tested on: Erysipelothrix rhusiopathiae NCTC 8163; experiment: MIC, veterinary bacteria; type: cell-based; conditions: NCTC8163, veterinary bacteria (Table 2), read-out: MIC
[3] = tested on: Staph aureus B4 (pen resis); experiment: MIC, veterinary bacteria; type: cell-based; conditions: Staphylococcus aureus, veterinary bacteria (Table 2), read-out: MIC
[4] = tested on: Strep uberis SPU1; experiment: MIC, veterinary bacteria; type: cell-based; conditions: veterinary bacteria (Table 2), read-out: MIC
[5] = tested on: M. suipneumoniae J2206/183b; experiment: MIC, anti-mycoplasmal, Friis broth solidified with 0.9% agarose; type: cell-based; conditions: Mesomycoplasma hyopneumoniae, 144 h, inoculum 10^3 to 10^5 C.F.U., 6 days incubation at 37°C, read-out: in vitro MIC
[6] = tested on: M. suipneumoniae MS 16; experiment: as above; type: cell-based; conditions: Mesomycoplasma hyopneumoniae, MS16, 144 h, inoculum 10^3 to 10^5 C.F.U., 6 days incubation at 37°C, read-out: in vitro MIC
[7] = tested on: M. gallisepticum S6; experiment: as above; type: cell-based; conditions: Mycoplasmoides gallisepticum, 144 h, inoculum 10^3 to 10^5 C.F.U., 6 days incubation at 37°C, read-out: in vitro MIC
[8] = Mean serum concentration in neonatal piglets after intramuscular or oral administration; type: in vivo; conditions: pig, 50 mg/kg; for concentration at 1 h: 60'
Method: e) Mean serum concentration in neonatal piglets of Examples 4 and 5 after intramuscular or oral administration at 50 mg/kg
Blood levels were assessed in neonatal piglets (2 to 4 animals per group and man bodyweights about 2 kg). The dose was 50 mg/kg (dose solution = 25 mg/ml in 25% ethanol). Doses were given by intramuscular injection and orally by stomach tube. Piglets were bled at intervals up to 8 and at 24 hours, and serum assayed microbiologically (B. subtilis ATCC 6633).

## CC(=CC(=O)OCCCC(=O)c1ccccc1)CC1OCC(CC2OC2C(C)C(C)O)C(O)C1O (stereo not drawn) [Example 5, 4-Phenylbutan-4-onyl monate A]
[1]
  MIC: 80 µg/mL (≈ 163 µM)
[2]
  MIC: 40 µg/mL (≈ 81.5 µM)
[3]
  MIC: 0.156 µg/mL (≈ 0.318 µM)
[4]
  MIC: 0.07 µg/mL (≈ 0.143 µM)
[5]
  MIC: 0.5 µg/mL (≈ 1.02 µM)
[6]
  MIC: 0.25 µg/mL (≈ 0.51 µM)
[7]
  MIC: 1 µg/mL (≈ 2.04 µM)
[8]; im
  concentration at 10 min: 1900 ng/mL
  concentration at 20 min: 2300 ng/mL
  concentration at 40 min: 1500 ng/mL
  concentration at 1 h: 1200 ng/mL
  concentration at 2 h: 570 ng/mL
  concentration at 3 h: 380 ng/mL
  concentration at 4 h: 330 ng/mL
  concentration at 6 h: 310 ng/mL
  concentration at 8 h: 180 ng/mL
  concentration at 24 h: < 200 ng/mL
[8]; po
  concentration at 10 min: 1200 ng/mL
  concentration at 20 min: 1200 ng/mL
  concentration at 40 min: 1200 ng/mL
  concentration at 1 h: 860 ng/mL
  concentration at 2 h: 230 ng/mL
  concentration at 3 h: 160 ng/mL
  concentration at 4 h: 80 ng/mL
  concentration at 6 h: 50 ng/mL
  concentration at 8 h: 30 ng/mL
  concentration at 24 h: < 200 ng/mL

— patent EP0025288A1, “Derivatives of monic acid, processes for their preparation, compositions containing them and their preparation” (priority 1979, dated 1981)
